Experimental data published in patent US20130230511A1, “BIOMARKERS FOR RESPONSE TO TYROSINE KINASE PATHWAY INHIBITORS IN CANCER” (BOARD OF REGENTS, THE UNIVERSITY OF TEXAS SYSTEM, priority 2012, published 2013).

Tests used:
NSCLC cell line H23 = assay: MTS assay of in vitro resistance to cisplatin and carboplatin, with KDR siRNA knockdown; type: cell-based; conditions: for decrease in IC50 caused by knockdown of KDR: H23 cells, siKDR knockdown versus untransfected, P<0.05; for IC50: MTS assay, 72 h drug exposure
Method: Cisplatin and carboplatin sensitivity was determined by MTS (3-(4,5-dimethylthiazol-2-yl)-5-(3-carboxymethoxyphenyl)-2-(4-sulfophenyl)-2H-tetrazolium, inner salt) assay for each cell line and the concentration required for 50% growth inhibition (IC50) was determined.
NSCLC cells were transfected with siRNA targeting KDR and control siRNA (OriGene Technology, Md., USA) at a final concentration of 10 nM using Lipofectamine RNAiMAX (Invitrogen, CA, USA) according to the manufacturer's instructions. Medium was replaced after 24 h. To verify the knockdown efficiency, mRNA and protein of transfected cells were collected for real-time RT-PCR and Western blot analyses.
The assessment of in vitro resistance to cisplatin and carboplatin was determined by the MTS assay. NSCLC cell lines were seeded in octuplicate at a density of 2,000 per well in 96-well plates. The following day, cells were treated with cisplatin and carboplatin at various concentrations ranging from 0 to 120 μmol/L for cisplatin and 0 to 200 μmol/L for carboplatin. After 72 h of drug exposure, 20 μL of MTS solution was added per well. Cells were incubated for 1-4 hours at 37° C. and read at a wavelength of 490 nm.
To investigate the role of KDR CNG and VEGFR-2 overexpression in resistance to both cisplatin and carboplatin, siRNA was utilized to knockdown KDR expression in H23 and H461 NSCLC cell lines, which contain 6-9 KDR gene copies. […] To evaluate the effect of KDR overexpression on sensitivity to cisplatin and carboplatin, the expression of KDR was inhibited by transfecting H23 and H461 cells with control siRNA or siRNA targeting KDR and then treating the cells with increasing concentrations of the chemotherapy drugs. Cell viability was evaluated by MTS assay.

HIF-1α = conditions: H23 cells (KDR CNG+), ELISA
Method: For HIF-1 expression analysis, the cells were serum-starved for 24 h and stimulated with 50 ng/mL VEGF-A (R&D Systems, MN, USA). Cells were incubated in normoxia and protein lysates were collected after 8 h. HIF-1α ELISA (R&D Systems, MN, USA) was performed according to the manufacturer's instructions.

H23 cells = conditions: which harbor VEGFR (KDR) CNGs
[1] = tested on: HIF-1α-regulated proteins (EZH2, Met, phosphorylated Met); assay: Changes in HIF-1α-regulated proteins in VEGFR amplified cell lines; type: cell-based; conditions: H23 and Calu1 cells (VEGFR CNGs)
Method: Two VEGFR amplified cell lines, H23 and Calu1, were treated with the VEGFR pathway inhibitor bevacizumab and evaluated for changes in proteins regulated by HIF-1α.
In addition, two VEGFR amplified cell lines, H23 and Calu1, were treated with the VEGFR pathway inhibitor bevacizumab and changes in proteins regulated by HIF-1α were evaluated.

[2] = untransfected (non-transfected) H23 cells

Row | Compound | decrease in IC50 caused by knockdown of KDR (NSCLC cell line H23) [fold] | IC50 (NSCLC cell line H23; siKDR knockdown H23 cells) [µM] | IC50 (NSCLC cell line H23; [2]) [µM] | further results
1 | N.N.O=C([O-])C1(C(=O)[O-])CCC1.[Pt+2] [carboplatin] | 3.5 | 27.9 | 97 | –
2 | Cc1ccc(NC(=O)c2ccc(CN3CCN(C)CC3)cc2)cc1Nc1nccc(-c2cccnc2)n1 [imatinib] | – | – | – | HIF-1α levels (HIF-1α): did not affect; cell migration (H23 cells): does not inhibit cellular migration
3 | N.N.[Cl][Pt][Cl] [cisplatin] | 1.9 | 53 | 97.9 | –
4 | bevacizumab | – | – | – | EZH2 protein [1]: decreased; Met protein [1]: decreased; phosphorylated Met [1]: decreased
